According to patent publication US20260334439A1, “BCAT2 INHIBITORS” (Agios Pharmaceuticals, Inc., priority 2023, published 2026):

Tests used:
BCAT2 [1] = biological target: T1, BCAT2 (Homo sapiens, UniProt O15382); assay: BCAT2 in vitro enzyme inhibition assay (hBCAT2, glutamate dehydrogenase/diaphorase/resazurin coupled fluorescence read); assay type: biochemical; details: hBCAT2, 1 h preincubation at 25° C., one hour reaction; average where tested multiple times
T1 sequence (O15382 28-392): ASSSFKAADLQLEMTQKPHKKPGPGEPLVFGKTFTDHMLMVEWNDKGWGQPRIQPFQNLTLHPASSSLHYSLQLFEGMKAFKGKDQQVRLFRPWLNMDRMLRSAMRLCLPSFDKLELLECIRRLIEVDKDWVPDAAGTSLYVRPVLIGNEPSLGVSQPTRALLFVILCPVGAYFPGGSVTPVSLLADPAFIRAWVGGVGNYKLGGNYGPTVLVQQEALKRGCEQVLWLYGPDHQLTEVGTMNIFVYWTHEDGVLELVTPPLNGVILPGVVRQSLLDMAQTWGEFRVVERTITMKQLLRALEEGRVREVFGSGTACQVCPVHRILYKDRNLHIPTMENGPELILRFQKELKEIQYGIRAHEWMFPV
Procedure, shortened: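 hBCAT2 (0.33 μg/mL in mix) preincubated 1 h at 25 °C with compound (top 100 μM, 3-fold, 10 points) in Tris pH 8.0/NaCl/BSA; substrate mix added (L-leucine, α-ketoglutarate, GDH, NAD, diaphorase, resazurin), quenched with SDS after 1 h, fluorescence Ex 540/Em 590; duplicates, repeat tests averaged.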

BCAT2 [2] = biological target: T1, BCAT2; assay: BCAT2 cell inhibition using engineered A549 cells (MUT KO, BCAT1 KO; 13C6-KMV formation by LC-MS/MS); assay type: cell-based; parameters: expressed endogenous BCAT2; endogenous in cells; host or cells: A549 cells, MUT knockout and BCAT1 knockout
Procedure, shortened: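 Medium 13C6-KMV formation is read by LC-MS/MS after PFBHA derivatization with d8-KMV internal standard. Cells are CRISPR MUT/BCAT1 double-knockout A549 expressing endogenous BCAT2, given compound 15 min before labelled isoleucine (800 uM, added 1:1) for 24 h. CTG viability run in parallel; replicates averaged.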

[3] = read-out: BCAT2 Cell Inhibition (IC50), engineered A549 cells, 24 hours, 13C6-KMV in media, average where tested multiple times

| SMILES | IC50 (BCAT2 [1]) [nM] | IC50 (BCAT2 [2]) [nM] | IC50 (BCAT2 [2]; [3]) [nM] |
| --- | --- | --- | --- |
| O=C1c2cc(F)ccc2NCN1[C@H]1CCC[C@@H](n2c(-c3ccccc3F)nc3cnc(-c4nc[nH]n4)cc32)C1 [Example 208, 6-fluoro-3-((1S,3R)-3-(2-(2-fluorophenyl)-6-(1H-1,2,4-triazol-3-yl)-1H-imidazo[4,5-c]pyridin-1-yl)cyclohexyl)-2,3-dihydroquinazolin-4(1H)-one] | < 100 | < 100 |  |
| COc1ccc(Cl)cc1C(=O)N[C@H]1CCC[C@@H](n2c(-c3ccccc3F)nc3cnc(-c4nc[nH]n4)cc32)[C@@H]1O [Example 102, 5-chloro-N-((1S,2R,3R)-3-(2-(2-fluorophenyl)-6-(1H-1,2,4-triazol-3-yl)-1H-imidazo[4,5-c]pyridin-1-yl)-2-hydroxycyclohexyl)-2-methoxybenzamide] | < 100 | < 100 |  |
| O=C1c2c(F)cccc2CN1[C@H]1CCC[C@@H](n2c(-c3ccccc3F)nc3cnc(-c4nc[nH]n4)cc32)C1 [Example 175, 7-fluoro-2-((1S,3R)-3-(2-(2-fluorophenyl)-6-(1H-1,2,4-triazol-3-yl)-1H-imidazo[4,5-c]pyridin-1-yl)cyclohexyl)isoindolin-1-one] | < 100 | < 100 |  |
| O=C1c2cc(F)ccc2CN1[C@H]1CCC[C@@H](n2c(-c3ccccc3OC(F)F)nc3cnc(-c4nc[nH]n4)cc32)C1 [compound 180] | < 100 | < 100 |  |
| Cc1coc(-c2cc3c(cn2)nc(-c2ccccc2C#N)n3[C@@H]2CCC[C@H](NC(=O)c3cc(F)ccc3F)C2)n1 [Example 93, N-((1S,3R)-3-(2-(2-cyanophenyl)-6-(4-methyloxazol-2-yl)-1H-imidazo[4,5-c]pyridin-1-yl)cyclohexyl)-2,5-difluorobenzamide] | < 100 | 100 to 500 |  |
| COc1ccc(Cl)cc1C(=O)N[C@H]1CCC[C@@H](n2c(-c3ccccc3F)nc3cnc(-c4nc[nH]n4)cc32)C1 [Example 1, 5-chloro-N-((1S,3R)-3-(2-(2-fluorophenyl)-6-(1H-1,2,4-triazol-3-yl)-1H-imidazo[4,5-c]pyridin-1-yl)cyclohexyl)-2-methoxybenzamide] | < 100 | < 100 |  |
| Cc1coc(-c2cc3c(cn2)nc(-c2ccccc2OCCO)n3[C@@H]2CCC[C@H](N3Cc4ccc(F)cc4C3=O)C2)n1 [Example 181, 6-fluoro-2-((1S,3R)-3-(2-(2-(2-hydroxyethoxy)phenyl)-6-(4-methyloxazol-2-yl)-1H-imidazo[4,5-c]pyridin-1-yl)cyclohexyl)isoindolin-1-one] | < 100 | < 100 |  |
| O=C1c2cc(F)ccc2CN1[C@H]1CCC[C@@H](n2c(-c3ncccc3F)nc3cnc(-c4nc[nH]n4)cc32)C1 [Example 170, 6-fluoro-2-((1S,3R)-3-(2-(3-fluoropyridin-2-yl)-6-(1H-1,2,4-triazol-3-yl)-1H-imidazo[4,5-c]pyridin-1-yl)cyclohexyl)isoindolin-1-one] | < 100 | < 100 |  |
| CO[C@H]1C[C@H](NC(=O)c2cc(F)ccc2F)C[C@H](n2c(-c3ccccc3F)nc3cnc(-c4nc[nH]n4)cc32)C1 [Example 122, 2,5-difluoro-N-((1R,3S,5S)-3-(2-(2-fluorophenyl)-6-(1H-1,2,4-triazol-3-yl)-1H-imidazo[4,5-c]pyridin-1-yl)-5-methoxycyclohexyl)benzamide] | < 100 | < 100 |  |
| N#Cc1ccccc1-c1nc2cnc(-c3nc[nH]n3)cc2n1[C@@H]1CCC[C@H](N2Cc3ccc(F)cc3C2=O)C1 [Example 171, 2-(1-((1R,3S)-3-(6-fluoro-1-oxoisoindolin-2-yl)cyclohexyl)-6-(1H-1,2,4-triazol-3-yl)-1H-imidazo[4,5-c]pyridin-2-yl)benzonitrile] | < 100 | < 100 |  |
| O=C1c2cc(F)ccc2OCN1[C@H]1CCC[C@@H](n2c(-c3ccccc3F)nc3cnc(-c4nc[nH]n4)cc32)C1 [Example 204, 6-fluoro-3-((1S,3R)-3-(2-(2-fluorophenyl)-6-(1H-1,2,4-triazol-3-yl)-1H-imidazo[4,5-c]pyridin-1-yl)cyclohexyl)-2,3-dihydro-4H-benzo[e][1,3]oxazin-4-one] | < 100 | < 100 |  |
| CC(C)COc1ccc(Cl)cc1C(=O)N[C@H]1CCC[C@@H](n2c(-c3ccccc3C#N)nc3cnc(-c4nc[nH]n4)cc32)C1 [Example 49, 5-chloro-N-((1S,3R)-3-(2-(2-cyanophenyl)-6-(1H-1,2,4-triazol-3-yl)-1H-imidazo[4,5-c]pyridin-1-yl)cyclohexyl)-2-isobutoxybenzamide] | < 100 | 100 to 500 |  |
| CC(=O)N1C[C@H](N2Cc3ccc(F)cc3C2=O)C[C@H](n2c(-c3ccccc3F)nc3cnc(-n4nccn4)cc32)C1 [Example 200, 2-((3R,5S)-1-acetyl-5-(2-(2-fluorophenyl)-6-(2H-1,2,3-triazol-2-yl)-1H-imidazo[4,5-c]pyridin-1-yl)piperidin-3-yl)-6-fluoroisoindolin-1-one] | < 100 | < 100 |  |
| O=C1c2ccc(F)cc2C(=O)N1[C@H]1CCC[C@@H](n2c(-c3ccccc3F)nc3cnc(-c4nc[nH]n4)cc32)C1 [Example 182, 5-fluoro-2-((1S,3R)-3-(2-(2-fluorophenyl)-6-(1H-1,2,4-triazol-3-yl)-1H-imidazo[4,5-c]pyridin-1-yl)cyclohexyl)isoindoline-1,3-dione] | < 100 | < 100 |  |
| CN1C[C@@H](NC(=O)c2cc(Cl)ccn2)C[C@@H](n2c(-c3ccccc3F)nc3cnc(-c4nc[nH]n4)cc32)C1 [Example 129, 4-chloro-N-((3S,5R)-5-(2-(2-fluorophenyl)-6-(1H-1,2,4-triazol-3-yl)-1H-imidazo[4,5-c]pyridin-1-yl)-1-methylpiperidin-3-yl)picolinamide] | 100 to 500 |  | > 1000 |
| CO[C@H]1C[C@H](N2Cc3ccc(F)cc3C2=O)C[C@H](n2c(-c3ccccc3OCCO)nc3ccc(-c4ncco4)cc32)C1 [Example 241, 6-fluoro-2-((1R,3S,5R)-3-(2-(2-(2-hydroxyethoxy)phenyl)-6-(oxazol-2-yl)-1H-benzo[d]imid-azol-1-yl)-5-methoxycyclohex-yl)isoindolin-1-one] | < 100 | 100 to 500 |  |
| COCCOc1ccc(Cl)cc1C(=O)N[C@H]1CCC[C@@H](n2c(-c3ccccc3F)nc3cnc(-c4nc[nH]n4)cc32)C1 [Example 54, 5-chloro-N-((1S,3R)-3-(2-(2-fluorophenyl)-6-(1H-1,2,4-triazol-3-yl)-1H-imidazo[4,5-c]pyridin-1-yl)cyclohexyl)-2-(2-methoxyethoxy)benzamide] | < 100 | < 100 |  |
| O=C1c2cc(F)ccc2CN1[C@H]1CCC[C@@H](n2c(-c3ccccc3OC(F)F)nc3cnc(-c4nc[nH]n4)cc32)[C@@H]1O [compound 188] | < 100 | 100 to 500 |  |
| O=C(N[C@H]1CCC[C@@H](n2c(-c3ccccc3F)nc3cnc(-c4nc[nH]n4)cc32)C1)c1cc(C(F)F)ccn1 [compound 100] | < 100 | < 100 |  |
| COc1ccc(Cl)cc1C(=O)N[C@H]1CCC[C@@H](n2c(-c3ccccc3F)nc3ccc(-c4nc[nH]n4)cc32)[C@@H]1O [Example 217, 5-chloro-N-((1S,2R,3R)-3-(2-(2-fluorophenyl)-6-(1H-1,2,4-triazol-3-yl)-1H-benzo[d]imidazol-1-yl)-2-hydroxycyclo-hexyl)-2-methoxybenzamide] | < 100 |  | > 1000 |
| O=C(N[C@H]1CCC[C@@H](n2c(-c3ccccc3F)nc3ccc(-c4nc[nH]n4)c(F)c32)C1)c1cc(Cl)ccn1 [Example 230, 4-chloro-N-((1S,3R)-3-(7-fluoro-2-(2-fluorophenyl)-6-(1H-1,2,4-triazol-3-yl)-1H-benzo[d]imidazol-1-yl)cyclohexyl)picolinamide] | < 100 | < 100 |  |
| COc1ccc(Cl)cc1C(=O)N[C@@H]1CCCC[C@H](n2c(-c3ccccc3F)nc3cnc(-c4nc[nH]n4)cc32)[C@H]1O [Example 104, 5-chloro-N-((1R,2S,3S)-3-(2-(2-fluorophenyl)-6-(1H-1,2,4-triazol-3-yl)-1H-imidazo[4,5-c]pyridin-1-yl)-2-hydroxycycloheptyl)-2-methoxybenzamide] | 500 to 1000 |  | > 1000 |
| CCOc1ccc(Cl)cc1C(=O)N[C@H]1CCC[C@@H](n2c(-c3ccccc3F)nc3cnc(-c4nc[nH]n4)cc32)C1 [Example 6, 5-chloro-2-ethoxy-N-((1S,3R)-3-(2-(2-fluorophenyl)-6-(1H-1,2,4-triazol-3-yl)-1H-imidazo[4,5-c]pyridin-1-yl)cyclohexyl)benzamide] | < 100 | < 100 |  |
| CN1CC(NC(=O)c2cc(Cl)ccc2O)C[C@H](n2c(-c3ccccc3F)nc3cnc(-c4nc[nH]n4)cc32)C1 (stereo in doubt) [Example 143, 5-chloro-N-(5-(2-(2-fluorophenyl)-6-(1H-1,2,4-triazol-3-yl)-1H-imidazo[4,5-c]pyridin-1-yl)-1-methylpiperidin-3-yl)-2-hydroxybenzamide] | < 100 | < 100 |  |
